± gives the expanded uncertainty stated by the source.
Tests used:
[1] = activity coefficient (dimensionless); of the first substance listed, at infinite dilution; xn = mol fraction of the nth substance listed; settings: Liquid, Chromatography, x1 = 0
[2] = 101.33 kPa, Liquid, Vibrating tube method

SMILES | activity coefficient ([1]; 298.15 K) | activity coefficient ([1]; 308.15 K) | activity coefficient ([1]; 318.15 K) | activity coefficient ([1]; 328.15 K) | activity coefficient ([1]; 338.15 K) | activity coefficient ([1]; 348.15 K) | activity coefficient ([1]; 358.15 K) | mass density ([2]; 298.15 K) [kg/m3] | mass density ([2]; 308.15 K) [kg/m3] | mass density ([2]; 318.15 K) [kg/m3] | mass density ([2]; 328.15 K) [kg/m3] | mass density ([2]; 338.15 K) [kg/m3] | mass density ([2]; 348.15 K) [kg/m3] | mass density ([2]; 358.15 K) [kg/m3]
CC1CCCCC1 [methylcyclohexane] + CCn1cc[n+](C)c1.N#C[B-](C#N)(C#N)C#N | 24.9 ± 1.7 | 22.7 ± 1.6 | 21.1 ± 1.4 | 19.4 ± 1.3 | 18 ± 1 | 16.9 ± 1.2 | 15.9 ± 1.1 |  |  |  |  |  |  | 
CCn1cc[n+](C)c1.N#C[B-](C#N)(C#N)C#N [1-ethyl-3-methylimidazolium tetracyanoborate] |  |  |  |  |  |  |  | 1036.27 ± 0.26 | 1028.4 ± 0.25 | 1020.64 ± 0.25 | 1012.97 ± 0.24 | 1005.4 ± 0.24 | 997.91 ± 0.23 | 990.51 ± 0.23
c1ccsc1 [thiophene] + CCn1cc[n+](C)c1.N#C[B-](C#N)(C#N)C#N | 0.938 ± 0.059 | 0.949 ± 0.06 | 0.958 ± 0.06 | 0.966 ± 0.061 | 0.976 ± 0.061 | 0.983 ± 0.062 | 0.992 ± 0.062 |  |  |  |  |  |  | 
Cc1ccccc1C [1,2-dimethylbenzene] + CCn1cc[n+](C)c1.N#C[B-](C#N)(C#N)C#N | 2.17 ± 0.15 | 2.18 ± 0.15 | 2.2 ± 0.15 | 2.21 ± 0.15 | 2.22 ± 0.15 | 2.24 ± 0.15 | 2.25 ± 0.15 |  |  |  |  |  |  | 
C#CCCCC [1-hexyne] + CCn1cc[n+](C)c1.N#C[B-](C#N)(C#N)C#N | 3.77 ± 0.26 | 3.76 ± 0.26 | 3.76 ± 0.26 | 3.75 ± 0.26 | 3.74 ± 0.25 | 3.74 ± 0.25 | 3.73 ± 0.25 |  |  |  |  |  |  | 
CCc1ccccc1 [ethylbenzene] + CCn1cc[n+](C)c1.N#C[B-](C#N)(C#N)C#N | 2.6 ± 0.18 | 2.6 ± 0.18 | 2.61 ± 0.18 | 2.61 ± 0.18 | 2.61 ± 0.18 | 2.61 ± 0.18 | 2.61 ± 0.18 |  |  |  |  |  |  | 
C1CCCCC1 [cyclohexane] + CCn1cc[n+](C)c1.N#C[B-](C#N)(C#N)C#N | 16.7 ± 1.1 | 15.2 ± 1 | 14.3 ± 1 | 13.2 ± 0.9 | 12.3 ± 0.8 | 11.6 ± 0.8 | 10.9 ± 0.7 |  |  |  |  |  |  | 
CCC(=O)CC [pentan-3-one] + CCn1cc[n+](C)c1.N#C[B-](C#N)(C#N)C#N |  | 0.798 ± 0.052 | 0.821 ± 0.053 | 0.842 ± 0.054 | 0.861 ± 0.055 | 0.883 ± 0.056 | 0.771 ± 0.05 |  |  |  |  |  |  | 
CCCCCC [hexane] + CCn1cc[n+](C)c1.N#C[B-](C#N)(C#N)C#N | 33.8 ± 2.3 | 30.7 ± 2.1 | 28.9 ± 2 | 26.3 ± 1.8 | 24.5 ± 1.7 | 23.1 ± 1.6 | 21.8 ± 1.5 |  |  |  |  |  |  | 
CCCC(C)=O [pentan-2-one] + CCn1cc[n+](C)c1.N#C[B-](C#N)(C#N)C#N |  | 0.816 ± 0.053 | 0.833 ± 0.054 | 0.847 ± 0.054 | 0.861 ± 0.055 | 0.879 ± 0.056 | 0.796 ± 0.052 |  |  |  |  |  |  | 
CCCCCCCCC [nonane] + CCn1cc[n+](C)c1.N#C[B-](C#N)(C#N)C#N | 131 ± 9 | 114 ± 8 | 102 ± 7 | 90.2 ± 6.2 | 81.1 ± 5.6 | 73.2 ± 5 | 66.3 ± 4.5 |  |  |  |  |  |  | 

Reference: the NIST ThermoML archive (doi:10.1016/j.jct.2011.02.012)
